Measured values reported in patent publication US20100292255A1, “Therapeutic Compounds and Their Use in Treating Diseases and Disorders” (Myriad Pharmaceuticals, Inc., priority 2007, published 2010).

Molecular target: T1, purified human Hsp90
T1 construct: purified human Hsp90 (Stressgen, SPP-770)
Test: Hsp90 binding assay: displacement of BODIPY-labeled geldanamycin measured by fluorescence polarization
Conditions: BODIPY-GM 10 nM, Hsp90 30 nM, overnight at room temperature; for IC50: read-out: GM displacement from purified Hsp90 measured by FP IC 50; for GM displacement from purified Hsp90 measured by FP Inhibition by 5 μM compd. (%): 5 μM compound
How it was run: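 Fluorescence polarization measured displacement of BODIPY-geldanamycin (10 nM) from purified human Hsp90 (30 nM). The buffer was HEPES-KOH pH 7.3 with molybdate, NP-40, gamma globulin and DTT, 2% DMSO, overnight at room temperature, ex/em 485/530 nm. % inhibition was calculated against DMSO controls, and points confounded by compound fluorescence were excluded.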

Row | IC50 [nM] | GM displacement from purified Hsp90 measured by FP Inhibition by 5 μM compd. (%) | SMILES
1 | 490 | – | C[C@H](O)C(=O)N1CCC(CCn2c(Sc3cc4c(cc3C#N)OCCO4)nc3c(N)ncnc32)CC1 [compound 99, 7-{[6-Amino-9-(2-{1-[(2S)-2-hydroxypropanoyl]piperidin-4-yl}ethyl)-9H-purin-8-yl]thio}-2,3-dihydro-1,4-benzodioxine-6-carbonitrile]
2 | 70 | – | CC(C)(C)[C@H](O)C(=O)N1CCC(CCn2c(Sc3cc4c(cc3Br)OCCO4)nc3c(N)ncnc32)CC1 [compound 106, (2S)-1-[4-(2-{6-Amino-8-[(7-bromo-2,3-dihydro-1,4-benzodioxin-6-yl)thio]-9H-purin-9-yl}ethyl)piperidin-1-yl]-3,3-dimethyl-1-oxobutan-2-ol]
3 | 72 | – | C[C@@H](O)C(=O)N1CCC(CCn2c(Sc3cc4c(cc3Br)OCCO4)nc3c(N)ncnc32)CC1 [compound 113, (2R)-1-[4-(2-{6-Amino-8-[(7-bromo-2,3-dihydro-1,4-benzodioxin-6-yl)thio]-9H-purin-9-yl}ethyl)piperidin-1-yl]-1-oxopropan-2-ol]
4 | 400 | – | C[C@@H](NC(=O)OC(C)(C)C)C(=O)N1CCC(Cn2c(Sc3cc4c(cc3Br)OCCO4)nc3c(N)ncnc32)CC1 [compound 120, tert-Butyl {(1R)-2-[4-({6-amino-8-[(7-bromo-2,3-dihydro-1,4-benzodioxin-6-yl)thio]-9H-purin-9-yl}methyl)piperidin-1-yl]-1-methyl-2-oxoethyl}carbamate]
5 | 295 | – | C[C@@H](N)C(=O)N1CCC(Cn2c(Sc3cc4c(cc3Br)OCCO4)nc3c(N)ncnc32)CC1 [compound 124, 9-([1-[(2R)-2-Aminopropanoyl]piperidin-4-yl}methyl)-8-[(7-bromo-2,3-dihydro-1,4-benzodioxin-6-yl)thio]-9H-purin-6-amine]
6 | 500 | – | C[C@H](N)C(=O)N1CCC(Cn2c(Sc3cc4c(cc3Br)OCCO4)nc3c(N)ncnc32)CC1 [compound 125, 9-({1-[(2S)-2-Aminopropanoyl]piperidin-4-yl}methyl)-8-[(7-bromo-2,3-dihydro-1,4-benzodioxin-6-yl)thio]-9H-purin-6-amine]
7 | > 5000 | – | C[C@H](O)C(=O)N[C@H](C)C(=O)N1CCC(Cn2c(Sc3cc4c(cc3Br)OCCO4)nc3c(N)ncnc32)CC1 [compound 126, (2S)-N-{(1R)-2-[4-({6-Amino-8-[(7-bromo-2,3-dihydro-1,4-benzodioxin-6-yl)thio]-9H-purin-9-yl}methyl)piperidin-1-yl]-1-methyl-2-oxoethyl}-2-hydroxypropanamide]
8 | > 5000 | – | C[C@@H](NC(=O)[C@@H](C)OC(=O)C(C)(C)C)C(=O)N1CCC(Cn2c(Sc3cc4c(cc3Br)OCCO4)nc3c(N)ncnc32)CC1 [compound 127, (1R)-2-({(1R)-2-[4-({6-amino-8-[(7-bromo-2,3-dihydro-1,4-benzodioxin-6-yl)thio]-9H-purin-9-yl}methyl)piperidin-1-yl]-1-methyl-2-oxoethyl}amino)-1-methyl-2-oxoethyl pivalate]
9 | 440 | – | C[C@@H](NC(=O)C(C)(C)C)C(=O)N1CCC(Cn2c(Sc3cc4c(cc3Br)OCCO4)nc3c(N)ncnc32)CC1 [compound 128, N-{(1R)-2-[4-({6-amino-8-[(7-bromo-2,3-dihydro-1,4-benzodioxin-6-yl)thio]-9H-purin-9-yl}methyl)piperidin-1-yl]-1-methyl-2-oxoethyl}-2,2-dimethylpropanamide]
10 | 3000 | – | C[C@@H](NC(=O)CC(C)(C)C)C(=O)N1CCC(Cn2c(Sc3cc4c(cc3Br)OCCO4)nc3c(N)ncnc32)CC1 [compound 129, N-{(1R)-2-[4-({6-Amino-8-[(7-bromo-2,3-dihydro-1,4-benzodioxin-6-yl)thio]-9H-purin-9-yl}methyl)piperidin-1-yl]-1-methyl-2-oxoethyl}-3,3-dimethylbutanamide]
11 | 1100 | – | C[C@H](O)C(=O)N[C@@H](C)C(=O)N1CCC(Cn2c(Sc3cc4c(cc3Br)OCCO4)nc3c(N)ncnc32)CC1 [compound 130, (2S)—N-{(1S)-2-[4-({6-Amino-8-[(7-bromo-2,3-dihydro-1,4-benzodioxin-6-yl)thio]-9H-purin-9-yl}methyl)piperidin-1-yl]-1-methyl-2-oxoethyl}-2-hydroxypropanamide]

Second part, the molecule before the results:

Row | SMILES | IC50 [nM] | GM displacement from purified Hsp90 measured by FP Inhibition by 5 μM compd. (%)
12 | C[C@H](O)C(=O)N1CCC(CCn2c(Sc3cc4c(cc3C#N)OCO4)nc3c(N)ncnc32)CC1 [compound 95, 6-{[6-Amino-9-(2-{1-[(2S)-2-hydroxypropanoyl]piperidin-4-yl}ethyl)-9H-purin-8-yl]thio}-l,3-benzodioxole-5-carbonitrile] | 700 | –
13 | C[C@H](O)C(=O)N1CCC(CCn2cnc(N)c3nc(Sc4cc5c(cc4C#N)OCO5)nc2-3)CC1 [compound 96, 6-{[6-Amino-3-(2-{1-[(2S)-2-hydroxypropanoyl]piperidin-4-yl}ethyl)-3H-purin-8-yl]thio}-1,3-benzodioxole-5-carbonitrile] | – | 13.0
14 | N#Cc1cc2c(cc1Sc1nc3c(N)ncnc3n1CCC1CCN(C(=O)CO)CC1)OCO2 [compound 97, 6-({6-Amino-9-[2-(1-glycoloylpiperidin-4-yl)ethyl]-9H-purin-8-yl}thio)-1,3-benzodioxole-5-carbonitrile] | 350 | –
15 | C[C@H](O)C(=O)N1CCC(CCn2cnc(N)c3nc(Sc4cc5c(cc4C#N)OCCO5)nc2-3)CC1 [compound 100, 7-{[6-Amino-3-(2-{1-[(2S)-2-hydroxypropanoyl]piperidin-4-yl}ethyl)-3H-purin-8-yl]thio}-2,3-dihydro-1,4-benzodioxine-6-carbonitrile] | – | 27.0
16 | N#Cc1cc2c(cc1Sc1nc3c(N)ncnc3n1CCC1CCN(C(=O)CO)CC1)OCCO2 [compound 101, 7-({6-Amino-9-[2-(1-glycoloylpiperidin-4-yl)ethyl]-9H-purin-8-yl}thio)-2,3-dihydro-1,4-benzodioxine-6-carbonitrile] | 200 | –
17 | COc1ccc(OC(F)(F)F)c(Sc2nc3c(N)ncnc3n2CCC2CCN(C(=O)CO)CC2)c1 [compound 102, 2-{4-[2-(6-Amino-8-{[5-methoxy-2-(trifluoromethoxy)phenyl]thio}-9H-purin-9-yl)ethyl]piperidin-1-yl}-2-oxoethanol] | 280 | –
18 | COc1ccc(OC(F)(F)F)c(Sc2nc3c(N)ncn(CCC4CCN(C(=O)CO)CC4)c-3n2)c1 [compound 103, 2-{4-[2-(6-Amino-8-{[5-methoxy-2-(trifluoromethoxy)phenyl]thio}-3H-purin-3-yl)ethyl]piperidin-1-yl}-2-oxoethanol] | – | 18.0
19 | COc1ccc(C#N)c(Sc2nc3c(N)ncnc3n2CCC2CCN(C(=O)CO)CC2)c1 [compound 104, 2-({6-Amino-9-[2-(1-glycoloylpiperidin-4-yl)ethyl]-9H-purin-8-yl}thio)-4-methoxybenzonitrile] | 800 | –
20 | COc1ccc(C#N)c(Sc2nc3c(N)ncn(CCC4CCN(C(=O)CO)CC4)c-3n2)c1 [compound 105, 2-({6-Amino-3-[2-(1-glycoloylpiperidin-4-yl)ethyl]-3H-purin-8-yl}thio)-4-methoxybenzonitrile] | – | 17.0
21 | CC(C)(C)[C@H](O)C(=O)N1CCC(CCn2cnc(N)c3nc(Sc4cc5c(cc4Br)OCCO5)nc2-3)CC1 [compound 107, (2S)-1-[4-(2-{6-Amino-8-[(7-bromo-2,3-dihydro-1,4-benzodioxin-6-yl)thio]-3H-purin-3-yl}ethyl)piperidin-1-yl]-3,3-dimethyl-1-oxobutan-2-ol] | – | 59.0
22 | C[C@H](O)C(=O)N1CCC(CCn2c(Sc3cc4c(cc3Br)CCC4)nc3c(N)ncnc32)CC1 [compound 108, (S)-1-(4-{2-[6-Amino-8-(6-bromo-indan-5-ylsuIfanyl)-purin-9-yl]-ethyl}-piperidin-1-yl)-2-hydroxy-propan-1-one] | 160 | –
23 | C[C@H](O)C(=O)N1CCC(CCn2cnc(N)c3nc(Sc4cc5c(cc4Br)CCC5)nc2-3)CC1 [compound 109, (S)-1-(4-{2-[6-Amino-8-(6-bromo-indan-5-ylsulfanyl)-purin-3-yl]-ethyl}-piperidin-1-yl)-2-hydroxy-propan-1-one] | – | 58.0
24 | CCc1ccc(Br)c(Sc2nc3c(N)ncn(CCC4CCN(C(=O)[C@H](C)O)CC4)c-3n2)c1 [compound 112, (2S)-1-[4-(2-{6-Amino-8-[(2-bromo-5-ethylphenyl)thio]-3H-purin-3-yl}ethyl)piperidin-1-yl]-1-oxopropan-2-ol] | – | 13.0
25 | C[C@H](NC(=O)OC(C)(C)C)C(=O)N1CCCC(Cn2cnc(N)c3nc(Sc4nc5cccc(Cl)c5s4)nc2-3)C1 (stereo partly drawn) [compound 116, tert-Butyl {(1S)-2-[3-({6-amino-8-[(7-chloro-1,3-benzothiazol-2-yl)thio]-3H-purin-3-yl}methyl)piperidin-1-yl]-1-methyl-2-oxoethyl}carbamate] | – | 15.0
26 | COc1cc(OC)c(Cl)c(Sc2nc3c(N)ncn(CC4CCCN(C(=O)[C@H](C)NC(=O)OC(C)(C)C)C4)c-3n2)c1 (stereo partly drawn) [compound 118, tert-Butyl {(1S)-2[3-({6-amino-8-[(2-chloro-3,5-dimethoxyphenyl)thio]-3H-purin-3-yl}methyl)piperidin-1-yl]-1-methyl-2-oxoethyl}carbamate] | – | 12.0
27 | COc1cc(OC)c(Cl)c(Sc2nc3c(N)ncnc3n2CC2CCCN(C(=O)[C@H](C)N)C2)c1 (stereo partly drawn) [compound 123, 9-({1-[(2S)-2-Aminopropanoyl]piperidin-3-yl}methyl)-8-[(2-chloro-3,5-dimethoxyphenyl)thio]-9H-purin-6-amine] | 3800 | –
